{"source": "patent US20060257481A1", "about": "“Sustained release formulation and dosing schedule of leukotriene synthesis inhibitor for human therapy” (deCODE Genetics ehf., priority 2005, published 2006)", "key": {"[1]": {"system": "LTB4 produced by ionomycin-activated neutrophils ex vivo", "assay": "Study DG-031-201: LTB4 in whole blood ex vivo after ionomycin activation, mass spectrometry", "set-up": "species or system human", "procedure": "(§1) Patients who met the study eligebility criteria were enrolled and randomized into 3 different dose-level groups: (1) 64 patients on 250 mg/day therapy with DG-031 (250 mg q.d.), vs placebo; (2) 64 patients on 500 mg/day therapy with DG-031 (250 mg b.i.d.) vs placebo; and (3) 63 patients on 750 mg/day therapy with DG-031 (250 mg t.i.d.) vs placebo. […] All patients received 3 tablets per day. Treatment periods, 4 weeks in duration each, were separated by a 2-week washout period. The placebo tablets were identical in shape, color, form and taste to the active tablets except that they contained no active drug ingredients. Treatment with DG-031 or placebo was in addition to the subject's standard care, including all medications and treatment plan as prescribed by the subject's cardiologist prior to enrolment. A total of 191 subjects were enrolled, with 172 completing all 8 visits or 8 patients short of the target of 180 patients.\n(§2) The primary objective was to determine whether the FLAP inhibitor has a statistically significant effect, compared to placebo, on one or more biomarkers of MI risk, including: (1) ionomycin-induced LTB4 and MPO release by neutrophils ex vivo; (2) MPO, CRP, N-tyrosine, Lp-PLA2 or amyloid A in serum, or (3) LTE4 in urine. The secondary objective was to determine whether the effect of DG-031 was dose-dependent. The tertiary objective was to assess other biomarkers (See Results). Evaluation of safety and tolerability of the drug was also a primary endpoint.\nAll data were analyzed according to a pre-established statistical analysis plan (SAP) and by intention-to-treat (ITT). Each arm of the study, as well as pooled sets (combining dose levels), was considered for the primary analysis. Each such set is an AB/BA cross-over design and in the primary analysis of efficacy, the levels of biomarkers of MI risk at the end of the treatment periods (visits 4 and 7) were used as primary response variables. The difference between DG-031 and placebo treatment was the primary outcome, assessed separately for each of the biomarkers. Treatment effect was tested using a two-sample t-test on the period differences for suitably transformed response variables, under an assumption of normality of the transformed data. We report treatment effect as one half of the observed mean differences in the two-sample t-test, with a 95% CI. No pre-tests for carry-over effect were performed as a part of the primary analysis. Tests for carry-over were done and are reported separately from results of primary analysis. All hypotheses were tested at a two-sided nominal significance level of 0.05 and p-values based on t-tests are reported. […]"}, "[2]": {"system": "LTB4 produced by ionomycin-activated neutrophils ex vivo", "assay": "Study DG-031-201: LTB4 in whole blood ex vivo after ionomycin activation (ELISA)", "set-up": "species or system human", "procedure": "as §1, §2\nAll data were analyzed according to a pre-established statistical analysis plan (SAP) and by intention-to-treat (ITT). Each arm of the study, as well as pooled sets (combining dose levels), was considered for the primary analysis. Each such set is an AB/BA cross-over design and in the primary analysis of efficacy, the levels of biomarkers of MI risk at the end of the treatment periods (visits 4 and 7) were used as primary response variables. The difference between DG-031 and placebo treatment was the primary outcome, assessed separately for each of the biomarkers. Treatment effect was tested using a two-sample t-test on the period differences for suitably transformed response variables, under an assumption of normality of the transformed data. We report treatment effect as one half of the observed mean differences in the two-sample t-test, with a 95% CI. No pre-tests for carry-over effect were performed as a part of the primary analysis. Tests for carry-over were done and are reported separately from results of primary analysis. All hypotheses were tested at a two-sided nominal significance level of 0.05 and p-values based on t-tests are reported. In addition, for the primary efficacy endpoints where the effects of the two highest doses on 10 primary variables were studied, a randomization test was performed which corrects for multiple testing and ensures that the key results are not affected by distributional concerns. In particular, 1 million permutations of the patients into the different study tracks were performed, generating a reference distribution for the maximum of the 10 t-statistics of the biomarkers under the null hypothesis of no drug effect. By comparing the observed t-statistic of each of the 10 biomarkers to this reference distribution, empirical p-values were computed. As was stated in the SAP prior to unblinding, it was considered likely that experimental manipulations would alter the effect of the drug on two of the primary markers; this was indeed the case and we are only reporting directly on 8 of the 10 primary markers but all 10 are included in the randomization test.\nBiomarker measurements: The ELISA and mass spectrometry assays used are described in the following references: Profita et al., J Pharmacol Exp Ther. 300:868-75, 2002; Roberts et al., Clin Chem. 47:418-25, 2001; Dada et al., Expert Rev Mol Diagn. […]"}, "LTE4 in urine": {"system": "LTE4 in urine", "assay": "Study DG-031-201: LTE4 in urine", "type": "in vivo, human", "procedure": "as §1, §2\nAll data were analyzed according to a pre-established statistical analysis plan (SAP) and by intention-to-treat (ITT). Each arm of the study, as well as pooled sets (combining dose levels), was considered for the primary analysis. Each such set is an AB/BA cross-over design and in the primary analysis of efficacy, the levels of biomarkers of MI risk at the end of the treatment periods (visits 4 and 7) were used as primary response variables. The difference between DG-031 and placebo treatment was the primary outcome, assessed separately for each of the biomarkers. […]"}, "MMP-9": {"system": "MMP-9", "assay": "Study DG-031-201: MMP 9", "type": "in vivo, human", "conditions": "difference visit 2 to visit 5; 500 and 750 mg/day vs placebo cohort", "procedure": "as §1\nAll data were analyzed according to a pre-established statistical analysis plan (SAP) and by intention-to-treat (ITT). Each arm of the study, as well as pooled sets (combining dose levels), was considered for the primary analysis. […] The difference between DG-031 and placebo treatment was the primary outcome, assessed separately for each of the biomarkers. […]"}, "[3]": {"assay": "Pharmacokinetics of DG-031 dosing schedules, plasma concentration (studies 201 and 203)", "conditions": "for Peak concentration with trough concentration of 3 μg/mL maintained: steady-state, both half-lives", "method": "Measurements of plasma DG-031 can be carried out by methods that are standard in the art. […] The DG-031 is then measured by liquid chromatography and/or mass spectrometry and the measured concentration is compared to a standard curve.\nAfter completion of the double-blind study reported herein an open-label randomized study was conducted in an independent cohort but with same eligibility criteria and measuring several of the same biomarkers. […] Each patient was on drug for 8 days; there was no placebo group. The primary objective of this study was to determine pharmacokinetic parameters of DG-031 in three different doses, as well as to assess the pharmacokinetic/pharmacodynamic relationship between DG-031, LTB4 and MPO.\nThe additional phase II study was conducted to compare a 750 mg total daily dose administered in a BID or TID dosing regimen."}, "[4]": {"conditions": "difference visit 2 to visit 5, 500 and 750 mg/day vs placebo cohort"}}, "note": "Several values for one entry are separate records, joined by “and”; a condition that tells them apart may be missing. Equal entries are not always repeated."}
{"smiles": "O=C(O)[C@@H](c1ccc(OCc2ccc3ccccc3n2)cc1)C1CCCC1", "note": "[DG-031, (R)-(+)-alpha-cyclopentyl-4-(2-quinolinylmethoxy)-Benzeneacetic acid]", "values": [{"measurement": "Maximum reduction in LTB4 production", "setting": "[1]; 750 mg/day, [10%,39%], p=0.003", "value": 26, "unit": "%"}, {"measurement": "Carry-over effect, LTB4 in whole blood, corr. for wbc, m.s.", "setting": "[1]; [4]", "value": 0.12}, {"measurement": "Carry-over effect, LTB4 in whole blood, mass spec.", "setting": "[1]; [4]", "value": 0.19}, {"measurement": "Reduction of LTB4 produced by ionomycin-activated neutrophils ex vivo", "setting": "[1]; pooled set of 500 mg and 750 mg arms, [6%,27%], nominal p=0.004", "value": 17, "unit": "%"}, {"measurement": "Reduction of capacity for LTB4 production", "setting": "[2]; 250 mg BID dose group, p=0.1", "value": 18, "unit": "%"}, {"measurement": "LTB4 production", "setting": "[2]; 250 mg BID, Study 201, NS", "value": "−18", "unit": "%"}, {"measurement": "Reduction of capacity for LTB4 production", "setting": "[2]; 250 mg QD dose group, p=0.22", "value": 13, "unit": "%"}, {"measurement": "LTB4 production", "setting": "[2]; 250 mg QD, Study 201, 64 subjects, NS", "value": "−13", "unit": "%"}, {"measurement": "Reduction of capacity for LTB4 production", "setting": "[2]; 250 mg TID dose group, p=0.008", "value": 34, "unit": "%"}, {"measurement": "LTB4 production", "setting": "[2]; 250 mg TID, St. 201, p = 0.008", "value": "−34% (St. 201)"}, {"measurement": "Reduction of capacity for LTB4 production", "setting": "[2]; 250 mg TID, at steady state Cmin, [0%,56%], p=0.02", "value": 30, "unit": "%"}, {"measurement": "Reduction of capacity for LTB4 production", "setting": "[2]; combined dose groups of 500 mg and 750 mg TDD, p=0.003", "value": "about 26%"}, {"measurement": "Carry-over effect, LTE4 in urine", "setting": "LTE4 in urine; [4]", "value": "−0.06"}, {"measurement": "Increase of urine levels of LTE4", "setting": "LTE4 in urine; highest dose, [15%,40%], p<0.001", "value": 27, "unit": "%"}, {"measurement": "Increase of urine levels of LTE4", "setting": "LTE4 in urine; pooled dose set 500 mg and 750 mg, [13%,30%]", "value": 21, "unit": "%"}, {"measurement": "Carry-over effect, MMP 9", "setting": "MMP-9", "value": "−0.04"}, {"measurement": "Minimum plasma concentration maintained", "setting": "[3]; 250 mg TID", "value": "~7", "unit": "µM"}, {"measurement": "Peak concentrations of DG-031", "setting": "[3]; 250 mg TID", "value": "about 10 μg/ml and ~28 μM"}, {"measurement": "Steady state Cmin plasma concentration", "setting": "[3]; 250 mg TID", "value": "2000 to 3000", "unit": "ng/mL"}, {"measurement": "Calculated AUC24h", "setting": "[3]; 250 mg TID vs 375 mg BID, study 203", "value": "somewhat higher for 250 mg TID than for 375 mg BID"}, {"measurement": "Cmin", "setting": "[3]; 375 mg BID vs 250 mg TID, study 203", "value": "slightly higher for the TID dosing regimen"}, {"measurement": "Peak concentration with trough concentration of 3 μg/mL maintained", "setting": "[3]; BID doses", "value": 14, "unit": "µg/mL"}, {"measurement": "Peak concentration required to keep steady-state concentration above 3 μg/ml", "setting": "[3]; BID dosing, calculated for a 2.5 hour half-life (FIG. 4)", "value": "~30", "unit": "µg/mL"}, {"measurement": "Peak concentration with trough concentration of 3 μg/mL maintained", "setting": "[3]; TID doses", "value": "7 to 8", "unit": "µg/mL"}, {"measurement": "Peak plasma concentration required to keep steady-state concentration above 3 μg/ml", "setting": "[3]; TID dosing, calculated for a 2.5 hour half-life", "value": "~11", "unit": "µg/mL"}, {"measurement": "Drug required with TID dosing relative to BID schedule to maintain the minimum concentration", "setting": "[3]; in vivo", "value": "about 70%"}, {"measurement": "Share of total exposure of the fraction with the slower half-life", "setting": "[3]; in vivo", "value": "about 25%"}]}
